Data: patent publication US4236015A, “1-(2-Acylaminophenyl)imidazoles” (Westwood Pharmaceuticals, Inc., priority 1979, dated 1980)

How the values were obtained:
rat paw edema = test: Rat paw edema assay, oral dosing; format: in vivo; conditions: 4 hours
Method: (§1) The anti-inflammatory activity of representative compounds of this invention was determined by the rat paw edema assay both by local administration (Table XI below) and by oral dosing (Table XII below). For the oral dosing, the procedure of C. A. Winter, E. A. Risley and G. W. Nuss, Proc. Soc. Exp. Biol. Med. 111, 544 (1962) was employed with measurement taken four hours after the drug was administered. The local administration tests were carried out similarly except the irritant (carrageenan) and the test compound were injected simultaneously at time zero. Tables XI and XII report the anti-inflammatory activity of the compounds tested as % difference in the edema or swelling as compared with the control. These Tables also give the response in many instances of more than one dose level of the same drug.

T. agelloi = test: Antifungal activity, agar dilution method; format: cell-based, Trichophyton ajelloi
Method: (§2) Various compounds of this invention display antifungal and anti-yeast activity.
(§3) In Table IX below are listed the antifungal activity of a number of compounds encompassed in the present invention. These were determined by the agar dilution method as described in Chapters 2 and 3 of Methods in Microbiology, Vol. 7B, edited by J. R. Norris and D. W. Ribbons, Academic Press, New York, 1972.

[1] = system: Trichophyton mentagrophytes; test: Antifungal activity, agar dilution method; format: cell-based, Trichophyton mentagrophytes (ATCC No. 8757 and 9129)
Method: as §2, §3

[2] = system: cell-mediated immune response to the antigen, Mycobacterium tuberculosis H37Ra; test: Delayed hypersensitivity test; format: in vivo, mouse; conditions: for D.H.S. (ED60): s.c., mice, 60% reduction of edema of cell-mediated immune response vs control
Method: The immunosuppressant activities of the compounds of this invention were determined via the hemolysin test in mice and by the delayed hypersensitivity test. The hemolysin test used is that described in Methods in Immunology, edited by D. H. Campbell et al, W. A. Benjamin, New York 1963 pages 172-175, and measures humeral or antibody response. The delayed hypersensitivity test measures the effect of a test compound on the ability of a subject mouse to mount a cell-mediated immune response to the antigen, Mycobacterium tuberculosis H37Ra. The mouse is sensitized to the antigen by subcutaneous administration in the base of the tail. The development of the delayed hypersensitivity response may be measured at any time beginning six days after sensitization but is usually done on the ninth day as follows: The right hind paw is injected with purified protein derivative (tuberculin) while the left hind paw (control) receives physiological saline. Both paw volumes are measured after twenty-four hours and significant increase in the volume of the right hind paw is taken as a measure of an effective delayed hypersensitivity response. All compounds were administered by the subcutaneous route.
The D.H.S. (ED60) mg./kg. s.c. value appearing in column 3 is an expression of the effectiveness of the drug in reducing the edema that accompanies the cell-mediated immune response. It is a measure of the number of milligrams per kilogram of body weight of the drug administered subcutaneously which is required to reduce the edema of the cell-mediated immune response by 60% when compared to the control.

[3] = system: humeral or antibody response; test: Hemolysin test in mice; format: in vivo; conditions: s.c., 50% reduction of antibody activity vs control
Candida tropicalis = test: Antifungal activity, agar dilution method; format: cell-based
Method: as §2, §3

Candida albicans = test: Antifungal activity, agar dilution method; format: cell-based, Candida albicans (ATCC No. 10231)
Method: as §2, §3

Trichophyton rubrum = test: Antifungal activity, agar dilution method; format: cell-based, Trichophyton rubrum (ATCC No. 10218 and 14001)
Method: as §2, §3

[4] = system: carrageenan rat paw edema; test: Rat paw edema assay, local administration; format: in vivo; conditions: 100 mg/kg
Method: as §1

Structure (SMILES) | Difference from Control (rat paw edema; 100 mg/kg) [%] | Parts Per Million Inhibitions, T. agelloi (T. agelloi) [Parts Per Million] | Parts Per Million Inhibitions, T. mentagrophytes [1] [Parts Per Million] | Difference from Control (rat paw edema; 400 mg/kg) [%] | D.H.S. (ED60) [2] [mg/kg] | HL(ED50) [3] [mg/kg] | Parts Per Million Inhibitions, C. tropicalis (Candida tropicalis) [Parts Per Million] | Parts Per Million Inhibitions, C. albicans (Candida albicans) [Parts Per Million] | Parts Per Million Inhibitions, T. rubrum (Trichophyton rubrum) [Parts Per Million] | % Difference from Control [4] [%] | ED60 ([2]; Mus musculus, sc, read-out: D.H.S. (ED60)) [mg/kg]
Cc1ccccc1-c1nc2ccccc2n2ccnc12 [Compound 132] | -76 | 100 | 100 | – | – | – | – | – | – | – | –
COc1cc(OC)cc(-c2nc3ccccc3n3ccnc23)c1 [Compound 139] | -22 | – | 100 | -25 | > 50 | 3.0 | – | – | – | – | –
Cc1cccc(-c2nc3ccccc3n3ccnc23)c1 [Compound 133] | -17 | 8 | 8 | – | 32 | 0.75 | 100 | 100 | 8 | – | –
Cc1ccc(-c2nc3ccccc3n3ccnc23)cc1 [Compound 134] | -43 | 100 | 16 | – | 7.2 | 0.5 | – | – | – | – | –
FC(F)(F)c1cccc(-c2nc3ccccc3n3ccnc23)c1 [Compound 136] | -9 | – | 100 | -25 | > 50 | 2.7 | – | – | – | – | –
CC(C)(C)c1ccc(-c2nc3ccccc3n3ccnc23)cc1 [Compound 137] | -26 | 100 | 100 | – | 3.2 | < 0.125 | – | – | – | – | –
Clc1ccc(-c2nc3ccccc3n3ccnc23)cc1 [Compound 140] | -35 | – | – | – | 1.15 | 0.26 | – | – | < 0.5 | -78 | –
CCCCCCCCCC(=O)Oc1ccc(-c2nc3ccccc3n3ccnc23)cc1 [Compound 165] | – | 100 | 100 | – | – | – | – | – | 100 | – | –
c1ccc(Oc2ccc(-c3nc4ccccc4n4ccnc34)cc2)cc1 [Compound 219] | – | – | – | – | – | – | – | – | – | – | < 32
c1ccc(-c2ccc(-c3nc4ccccc4n4ccnc34)cc2)cc1 [Compound 135] | – | 100 | 100 | – | 0.22 | 0.033 | – | – | – | – | –
